According to PubChem BioAssay (NCI):
Several values for one entry are separate records, joined by “and”; a condition that tells them apart may be missing. Equal entries are not always repeated.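 Method: 48-hour compound exposure of cells in 96-well plates, five concentrations, linear interpolation of endpoints. Abbreviation: GI50, concentration required for 50% inhibition of growth. TGI is the concentration that stops growth completely.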

Key:
Assay in all cases: NCI-60 cell line screen, 48 h; in the data active means GI50 below about 0.43 µM; inactive means the rest
[1] = test system: UACC-62 melanoma
[2] = test system: MDA-N
[3] = test system: T-47D breast
[4] = test system: OVCAR-4 ovarian
[5] = test system: LOX IMVI melanoma
[6] = test system: BT-549 breast
[7] = test system: M14 melanoma
[8] = test system: IGROV1 ovarian
[9] = test system: NCI-H226 lung
[10] = test system: SN12C renal
[11] = test system: SK-MEL-28 melanoma
[12] = test system: SK-MEL-2 melanoma
[13] = test system: UACC-257 melanoma
[14] = test system: HOP-62 NSCLC
[15] = test system: HL-60(TB) leukemia
[16] = test system: RPMI-8226 leukemia
[17] = test system: EKVX NSCLC
[18] = test system: MCF7 breast
[19] = test system: U251 CNS
[20] = test system: SK-OV-3 ovarian
[21] = test system: HCT-116 colon
[22] = test system: DU-145 prostate
[23] = test system: COLO 205 colon
[24] = test system: MDA-MB-435
[25] = test system: MOLT-4 leukemia
[26] = test system: SNB-19 CNS
[27] = test system: NCI-H522 lung
[28] = test system: HOP-92 NSCLC
[29] = test system: NCI-H460 lung
[30] = test system: HS 578T breast
[31] = test system: HT29 colon
[32] = test system: UO-31 renal
[33] = test system: MALME-3M melanoma
[34] = test system: K-562 leukemia
[35] = test system: SNB-75 CNS
[36] = test system: A549 NSCLC
[37] = test system: OVCAR-3 ovarian
[38] = test system: NCI-H23 lung
[39] = test system: SK-MEL-5 melanoma
[40] = test system: 786-0 renal
[41] = test system: SW-620 colon
[42] = test system: SF-268 CNS
[43] = test system: PC-3 prostate
[44] = test system: ACHN renal
[45] = test system: OVCAR-5 ovarian
[46] = test system: SR leukemia
[47] = test system: OVCAR-8 ovarian
[48] = test system: SF-295 CNS
[49] = test system: NCI/ADR-RES ovarian
[50] = test system: CAKI-1 renal
[51] = test system: HCT-15 colon
[52] = test system: TK-10 renal
[53] = test system: KM12 colon
[54] = test system: SF-539 CNS
[55] = test system: CCRF-CEM leukemia
[56] = test system: MDA-MB-231 breast
[57] = test system: RXF 393 renal
[58] = test system: HCC-2998 colon
[59] = test system: A498 renal

CC1(C)/C(=N\Nc2ccc([N+](=O)[O-])cc2[N+](=O)[O-])C2CCC1C2 (centres undefined)
98.6 µM: TGI [30]
65.8 µM: TGI [35]
> 100 µM: TGI [1] | TGI [2] | TGI [3] | TGI [4] | TGI [5] | TGI [6] | TGI [7] | TGI [8] | TGI [9] | TGI [10] | TGI [11] | TGI [12] | TGI [13] | TGI [14] | TGI [15] | TGI [16] | TGI [17] | TGI [18] | TGI [19] | TGI [20] | TGI [21] | TGI [22] | TGI [23] | TGI [24] | TGI [25] | TGI [26] | TGI [27] | TGI [28] | TGI [29] | TGI [31] | TGI [32] | TGI [33] | TGI [34] | TGI [36] | TGI [37] | TGI [38] | TGI [39] | TGI [40] | TGI [41] | TGI [42] | TGI [43] | TGI [44] | TGI [45] | TGI [46] | TGI [47] | TGI [49] | TGI [50] | TGI [51] | TGI [52] | TGI [53]
71.5 µM: TGI [48]

COc1ccc(-c2c3c(nc4[nH]c(=S)[nH]c(=S)c24)CCCC3)cc1OC
37.5 µM: TGI [1]
59 µM: TGI [36]
45.3 µM: TGI [5]
54.4 µM: TGI [30]
39.6 µM: TGI [19]
66.1 µM: TGI [49]
32.6 µM: TGI [39]
73.1 µM: TGI [55]
57.9 µM: TGI [57]
86.2 µM: TGI [10]
51.2 µM: TGI [35]
38.8 µM: TGI [48]
42.9 µM: TGI [29]
61.2 µM: TGI [25]
28.6 µM: TGI [54]
> 100 µM: TGI [2] | TGI [3] | TGI [4] | TGI [6] | TGI [7] | TGI [13] | TGI [14] | TGI [15] | TGI [16] | TGI [18] | TGI [20] | TGI [21] | TGI [22] | TGI [23] | TGI [24] | TGI [26] | TGI [31] | TGI [32] | TGI [56] | TGI [33] | TGI [34] | TGI [37] | TGI [38] | TGI [41] | TGI [42] | TGI [44] | TGI [45] | TGI [46] | TGI [50] | TGI [51] | TGI [52] | TGI [53]
79 µM: TGI [43]
70.7 µM: TGI [11]
74.6 µM: TGI [47]
76.2 µM: TGI [8]
76.9 µM: TGI [17]

CCC1(N)C(=O)OCc2c1cc1n(c2=O)Cc2cc3ccccc3nc2-1 (centres undefined)
50.2 µM and > 100 µM: TGI [48]
20.5 µM and 14.1 µM: TGI [1]
> 100 µM and 99 µM: TGI [28]
> 54.1 µM and 61.3 µM: TGI [49]
72 µM and > 100 µM: TGI [20]
20.9 µM and 17.4 µM: TGI [32]
12.2 µM and 21.3 µM: TGI [44]
> 100 µM and 18.4 µM: TGI [3]
> 52.2 µM and 45.9 µM: TGI [50]
20.4 µM and > 47.8 µM: TGI [39]
> 78.9 µM: TGI [35]
63.1 µM and > 100 µM: TGI [57]
> 100 µM: TGI [2] | TGI [4] | TGI [6] | TGI [8] | TGI [10] | TGI [11] | TGI [12] | TGI [13] | TGI [14] | TGI [17] | TGI [18] | TGI [19] | TGI [23] | TGI [24] | TGI [26] | TGI [27] | TGI [30] | TGI [31] | TGI [56] | TGI [33] | TGI [34] | TGI [36] | TGI [41] | TGI [42] | TGI [43] | TGI [45] | TGI [51] | TGI [52] | TGI [53]
34.4 µM and 46.2 µM: TGI [59]
38.2 µM and 54.4 µM: TGI [38]
inactive: GI50 [1] 3.89 µM | GI50 [2] 21.8 µM | GI50 [3] 5.78 µM | GI50 [4] 38.2 µM | GI50 [8] 15.6 µM | GI50 [58] 14.1 µM | GI50 [9] 2.71 µM | GI50 [10] 6.27 µM | GI50 [11] 41.7 µM | GI50 [12] 48.8 µM | GI50 [13] 24.4 µM | GI50 [54] 2.93 µM | GI50 [14] 4.77 µM | GI50 [15] 4.44 µM | GI50 [16] 3.66 µM | GI50 [17] 20.7 µM | GI50 [18] 2.82 µM | GI50 [19] 4.9 µM | GI50 [20] 8.99 µM | GI50 [21] 6.51 µM | GI50 [22] 5.79 µM | GI50 [55] 1.96 µM | GI50 [23] 16.7 µM | GI50 [24] 21.1 µM | GI50 [25] 1.83 µM | GI50 [27] 8.51 µM | GI50 [28] 28.4 µM | GI50 [29] 1.72 µM | GI50 [30] > 69.6 µM | GI50 [32] 4.43 µM | GI50 [56] 49.3 µM | GI50 [33] 24.5 µM | GI50 [34] 5.36 µM | GI50 [59] 10.6 µM | GI50 [57] 15.4 µM | GI50 [36] 5.05 µM | GI50 [37] 17.2 µM | GI50 [39] 7.17 µM | GI50 [40] 3.31 µM | GI50 [41] 12.9 µM | GI50 [44] 2.75 µM | GI50 [45] 30 µM | GI50 [47] 12 µM | GI50 [48] 3.45 µM | GI50 [49] 7.18 µM | GI50 [50] 3.26 µM | GI50 [51] 19.7 µM | GI50 [52] 51 µM | GI50 [53] 26.1 µM
11.8 µM and > 47.9 µM: TGI [54]
> 72.4 µM: TGI [47]
23.4 µM and > 100 µM: TGI [21]
41.1 µM and > 100 µM: TGI [58]
> 68.7 µM and 21.2 µM: TGI [22]
28.2 µM and 33.6 µM: TGI [5]
34.3 µM and 97.1 µM: TGI [9]
> 41.7 µM: TGI [25]
42.6 µM and > 100 µM: TGI [37]
54 µM and > 100 µM: TGI [7]
81.5 µM and > 100 µM: TGI [16]
49.8 µM and > 54.6 µM: TGI [40]
